Reference: US20160166572A1, “BENEFICIAL EFFECTS OF Lp-PLA2 INHIBITORS IN TREATMENT OF DIABETIC RETINOPATHY AND AGE-RELATED MACULAR DEGENERATION” (Rowan University, priority 2014, published 2016)

What was measured:
BBB = BBB permeability, IgG binding and Aβ42 deposition in cerebral cortex, animal model of DM and hypercholesterolemia; assay type: in vivo
GFAP = GFAP expression in retina (immunofluorescence), DMHC pigs; assay type: in vivo, pig; details: Darapladib 10 mg/kg/d orally, 24 weeks
Procedure: Briefly, after induction of diabetes by a single injection of Streptozotocin, animals were fed a high cholesterol diet. After a month of DMHC induction and acclimation, animals were randomly segregated to untreated DMHC and Darapladib-treated DMHC groups. Darapladib-treated pigs received 10 mg/kg/d of Darapladib orally. Three of the pigs were spared from DMHC induction and served as age-matched, non-DMHC normal controls. Twenty four weeks after acclimation, animals were euthanized and their brains and eyes were immediately removed. Brains were divided anteroposteriorly into anterior, middle and posterior regions. For each of these brain regions, 2-3 tissue blocks were generated for routine tissue fixation (10% formalin) or freezing and histological processing. […] Cells positive for GFAP were counted throughout the whole thickness of the retina, and then quantified using ImagePro7.0 (Media Cybernetics, Silver Spring, Md.). Briefly, a 300×300 pixel square area was randomly made in each retinal section in three contiguous locations across the retina and the positive GFAP area was determined per total area using a fixed threshold. […] Cell number was determined by counting the DAPI-positive nuclei in a fixed area. […] GFAP-positive fluorescence extended from inner to outer limiting membranes in the DMHC group, confirming that GFAP was predominantly being expressed by Müller cells (FIGS. 5A-E). […]

occludin = experiment: Occludin protein expression in BVECs of cerebral cortex (IHC, MATLAB), DMHC pigs; assay type: in vivo, pig; details: Darapladib 10 mg/kg/d orally, 24 weeks
Procedure: Briefly, after induction of diabetes by a single injection of Streptozotocin, animals were fed a high cholesterol diet. After a month of DMHC induction and acclimation, animals were randomly segregated to untreated DMHC and Darapladib-treated DMHC groups. Darapladib-treated pigs received 10 mg/kg/d of Darapladib orally. Three of the pigs were spared from DMHC induction and served as age-matched, non-DMHC normal controls. Twenty four weeks after acclimation, animals were euthanized and their brains and eyes were immediately removed. Brains were divided anteroposteriorly into anterior, middle and posterior regions. For each of these brain regions, 2-3 tissue blocks were generated for routine tissue fixation (10% formalin) or freezing and histological processing. The anterior cortical region comprised of anterior 2⁄3 of frontal lobe and anterior 1⁄3 of temporal lobe. The middle cortical region contained mid 1⁄3 of temporal lobe and anterior 1⁄2 of the parietal lobe. The posterior cortex included the posterior 1⁄2 of the parietal lobe, posterior 1⁄3 of the temporal lobe and the occipital lobe. Eyes were dissected longitudinally to sever the retina at the optic nerve. The sections were fixed in 10% formalin and embedded as flattened disc in paraffin. The tissue samples were processed using routine histology techniques. Standard Hematoxylin & Eosin (H&E) staining (FIG. 1) was carried out in retinal sections. […] Extravasated IgG was detected using biotinylated anti-swine IgG antibody (Vector laboratories, Inc., Catalogue # BA-9020; dilution 1:100). […] Slides were examined and photographed with a Nikon FXA microscope, and digital images were recorded using a Nikon DXM1200F digital camera and analyzed using MATLAB (MathWorks, Mass., USA) and NIS-elements software (Nikon, Melville, N.Y.). […] Claudin5 and occludin protein expression in pig cerebral cortex was evaluated semi-quantitatively using IHC by taking images at five random locations as described previously. Images were analyzed using MATLAB (MathWorks, Mass., USA). […]

CCN(CC)CCN(Cc1ccc(-c2ccc(C(F)(F)F)cc2)cc1)C(=O)Cn1c(SCc2ccc(F)cc2)nc(=O)c2c1CCC2 [Darapladib]
Aβ42 deposition in cortical pyramidal neurons (BBB): reverse | BBB permeability (BBB): reverse | IgG binding in cortical pyramidal neurons (BBB): reverse | intensity of GFAP immunostaining (GFAP expression) in retina (GFAP; FIG. 5D): dramatically lower GFAP expression in the retinas of DMHC pigs, it was still significantly higher than in controls | GFAP immunoreactivity, distribution in retina (GFAP; compared to DMHC only, FIGS. 5A-C): reduced and confined to the GCL | occludin protein expression, middle cortex (occludin; FIG. 7E): comparable levels of occludin expression | occludin protein expression, anterior cortex (occludin; rank among treatment groups, FIG. 7D): highest level of occludin expression | occludin protein expression, posterior cortex (occludin; rank among treatment groups, FIG. 7F): lowest expression
